The values below come from patent EP4772186A1, “USE AND COMPOSITION OF POSTBIOTIC OF LACTOBACILLUS PARACASEI ET-22” (Inner Mongolia Yili Industrial Group Co., Ltd., priority 2023, dated 2025).

For one test, the system named is biofilm. Kind of test: scanning electron microscopy (SEM) of biofilm on HA disc. Format: cell-based, halitosis subjects (saliva). The following applies: pure components 100 µg/ml, others from 1.0×10^9 CFU/ml, 37°C 10 hours. As to the method:
Lysate group: A hydroxyapatite (HA) disc was placed in a 96-well plate. 10 µl of saliva was added to the 96-well plate, followed by separate addition of ET-22 viable bacteria (1.0×10^9 CFU/ml), ET-22 heat-inactivated bacterial cells (obtained by inactivating viable bacteria at 1.0×10^9 CFU/ml), and lysate (obtained by inactivating and filtering viable bacteria at 1.0×10^9 CFU/ml), each at 10 µl. Then, 80 µl of SHI medium was added. The 96-well plate was placed in an anaerobic box and cultured anaerobically at 37°C for 10 hours.
NAD group: A hydroxyapatite (HA) disc was placed in a 96-well plate. 10 µl of saliva was added to the 96-well plate, followed by separate addition of ET-22 viable bacteria (1.0×10^9 CFU/ml), ET-22 heat-inactivated bacterial cells (obtained by heat-inactivating viable bacteria at 1.0×10^9 CFU/ml), and NAD (100 µg/ml), each at 10 µl. Then, 80 µl of SHI medium was added. The 96-well plate was placed in an anaerobic box and cultured anaerobically at 37°C for 10 hours.
2-hydroxy-3-phenylpropionic acid group: A hydroxyapatite (HA) disc was placed in a 96-well plate. 10 µl of saliva was added to the 96-well plate, followed by separate addition of ET-22 viable bacteria (1.0×10^9 CFU/ml), ET-22 heat-inactivated bacterial cells (obtained by heat-inactivating viable bacteria at 1.0×10^9 CFU/ml), and 2-hydroxy-3-phenylpropionic acid (100 µg/ml), each at 10 µl. […]

The next test deals with VSC concentration. The test is described as follows: in vitro Halimeter determination of VSC concentration in saliva fermentation. Format: cell-based, halitosis subjects (saliva). The settings on record: compared with CK group, anaerobic cultivation 10 hours. As to the method:
Fresh saliva was collected from 10 halitosis subjects (Halimeter index >120). Subjects were required not to consume any food or drink for 2 hours before donating saliva. Saliva was directly spat into a saliva collection tube, 5 ml per person, and mixed. The mixture was centrifuged at 4500 rpm for 10 minutes, and the supernatant was collected, aliquoted, and stored at -80°C for subsequent experimental studies.
(§1) Lysate observation group: In a 10 ml sample vial, 100 µl of saliva was added first, followed by the separate addition of ET-22 viable bacteria (1.0×10^9 CFU/ml), ET-22 heat-inactivated bacterial cells (obtained by inactivating viable bacteria at 1.0×10^9 CFU/ml), and lysate (obtained by inactivating and then filtering viable bacteria at 1.0×10^9 CFU/ml), each at 100µl. Then, 1.8 ml of SHI medium was added. After filling with nitrogen, anaerobic cultivation was performed for 10 hours. Then, the obtained culture was placed in a 60°C water bath for 30-min incubation. VSC concentration was measured using the in vitro Halimeter method.
(§2) Group of two nucleotides: In a 10 ml sample vial, 100 µl of saliva was added first, followed by the separate addition of ET-22 viable bacteria (1.0×10^9 CFU/ml), ET-22 heat-inactivated bacterial cells (obtained by inactivating viable bacteria at 1.0×10^9 CFU/ml), NAD, and FAD (500 µg/ml, 100 µg/ml, 10 µg/ml), each at 100µl. Then, 1.8 ml of SHI medium was added. After filling with nitrogen, anaerobic cultivation was performed for 10 hours. Then, the obtained culture was placed in a 60°C water bath for 30-min incubation. VSC concentration was measured using the in vitro Halimeter method.
as §2, with “five organic acids:” for “two nucleotides:”, “heat-inactivating” for “inactivating”, “CFU/ml),” for “CFU/ml), NAD,”, “five organic acid components” for “FAD”
as §2, with “Observation group” for “Group”, “four polypeptides:” for “two nucleotides:”, “heat-inactivating” for “inactivating”, “CFU/ml),” for “CFU/ml), NAD,”, “components of four polypeptides” for “FAD”
as §1, with “Peptidoglycan” for “Lysate observation”, “peptidoglycan (peptidoglycan extracted from” for “lysate (obtained by inactivating and then filtering”, “CFU/ml).” for “CFU/ml), each at 100µl.”, “method. […]” for “method.”

For the molecule `O=C(O)C(O)Cc1ccccc1` (stereo not drawn) [2-hydroxy-3-phenylpropionic acid], the “biofilm structure (SEM observation)” value in the test on biofilm was “the number of bacterial cell layers decreases, and the biofilm becomes thinner”. Also, the VSC concentration result in the test on VSC concentration (high concentration (500 µg/ml)) and in the test on VSC concentration (medium concentration (100 µg/ml)) was “significantly lower than that in the control group” each time.
